# According to patent publication US20220298138A1, “ENZYME INHIBITORS” (KALVISTA PHARMACEUTICALS LIMITED, priority 2019, published 2022):
# pIC50: −log10 of the molar value.
# Target: T1, Human Factor XIIa (Homo sapiens, UniProt P00748)
# T1 construct: purchased Enzyme Research Laboratories
# T1 sequence (P00748 373-615 limits assumed): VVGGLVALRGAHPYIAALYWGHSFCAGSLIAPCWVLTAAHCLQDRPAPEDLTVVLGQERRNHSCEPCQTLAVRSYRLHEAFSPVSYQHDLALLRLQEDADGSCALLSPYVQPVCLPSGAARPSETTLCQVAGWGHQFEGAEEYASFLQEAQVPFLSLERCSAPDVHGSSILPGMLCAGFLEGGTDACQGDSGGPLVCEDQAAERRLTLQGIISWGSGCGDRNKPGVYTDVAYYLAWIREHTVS
# Assay: Factor XIIa inhibitory activity in vitro (fluorogenic substrate H-DPro-Phe-Arg-AFC)
# Type: biochemical
# Settings: 25° C., class symbols, read-out: Human FXIIa IC50
# In short: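 Enzyme incubated at 25° C with fluorogenic substrate H-DPro-Phe-Arg-AFC and a range of compound concentrations. Residual activity taken as initial reaction rate from […], giving IC50.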
row,SMILES,pIC50
1,COc1ccc(OCCC(=O)N[C@@H](Cc2ccc(F)c(F)c2)C(=O)NCc2ccc3c(N)nccc3c2)cc1 [Example 20.01],4.40 to 5.00
2,Nc1nccc2cc(CNC(=O)[C@H](Cc3ccc(F)c(F)c3)NC(=O)COc3cccnc3)ccc12 [Example 20.02],4.40 to 5.00
3,Cc1ccnn1CCC(=O)N[C@@H](Cc1ccc(F)c(F)c1)C(=O)NCc1ccc2c(N)nccc2c1 [Example 20.03],4.40 to 5.00
4,CCOCCC(=O)N[C@@H](Cc1ccc(F)c(F)c1)C(=O)NCc1ccc2c(N)nccc2c1 [Example 20.04],4.40 to 5.00
5,Nc1nccc2cc(CNC(=O)[C@H](Cc3ccc(F)c(F)c3)NC(=O)CCn3cnc4ccccc43)ccc12 [Example 20.05],4.40 to 5.00
6,Cc1nc2ccccc2n1CCC(=O)N[C@@H](Cc1ccc(F)c(F)c1)C(=O)NCc1ccc2c(N)nccc2c1 [Example 20.06],4.40 to 5.00
7,Nc1nccc2cc(CNC(=O)[C@H](Cc3ccc(F)c(F)c3)NC(=O)CCn3cncn3)ccc12 [Example 20.07],4.40 to 5.00
8,Cc1nn(C)c(C)c1CCC(=O)N[C@@H](Cc1ccc(F)c(F)c1)C(=O)NCc1ccc2c(N)nccc2c1 [Example 20.08],4.40 to 5.00
9,Nc1nccc2cc(CNC(=O)[C@H](Cc3ccc(F)c(F)c3)NC(=O)CCNC(=O)c3ccc(F)cc3)ccc12 [Example 20.09],4.40 to 5.00
10,Nc1nccc2cc(CNC(=O)[C@H](Cc3ccc(F)c(F)c3)NC(=O)CCc3[nH]nc4c3CCCC4)ccc12 [Example 20.10],4.40 to 5.00
11,Nc1nccc2cc(CNC(=O)[C@@H](N)Cc3csc4ccccc34)ccc12 [Example 24.01],4.40 to 5.00
12,Nc1nccc2cc(CNC(=O)[C@@H](N)Cc3cccc(F)c3)ccc12 [Example 24.02],4.40 to 5.00
13,Nc1nccc2cc(CNC(=O)C[C@@H](N)Cc3ccccc3)ccc12 [Example 24.03],4.40 to 5.00
14,Cc1ccc2cc(C(=O)N3CCC(C(=O)NCc4ccc5c(N)nccc5c4)C3)ccc2n1 (stereo not shown) [Example 32.01],4.40 to 5.00
15,C[C@@H]1CCC[C@H](C)N1CC(=O)N1CCC[C@H]1C(=O)NCc1ccc2c(N)nccc2c1 [Example 32.02],4.40 to 5.00
16,C[C@@H]1CCC[C@H](C)N1CC(=O)N1CCCC[C@H]1C(=O)NCc1ccc2c(N)nccc2c1 [Example 32.03],5.52 to 6.00
17,C[C@@H]1CCC[C@H](C)N1CC(=O)N1c2ccccc2C[C@H]1C(=O)NCc1ccc2c(N)nccc2c1 [Example 32.04],4.40 to 5.00
18,C[C@@H]1CCC[C@H](C)N1CC(=O)N1CC[C@H](C(=O)NCc2ccc3c(N)nccc3c2)C1 [Example 32.06],4.40 to 5.00
19,C[C@@H]1CCC[C@H](C)N1CC(=O)N1CC[C@@H](C(=O)NCc2ccc3c(N)nccc3c2)C1 [Example 32.07],4.40 to 5.00
20,C[C@@H]1CCC[C@H](C)N1CC(=O)N1CCC[C@@H](C(=O)NCc2ccc3c(N)nccc3c2)C1 [Example 32.08],5.52 to 6.00
21,C[C@@H]1CCC[C@H](C)N1CC(=O)N1c2ccccc2CC[C@H]1C(=O)NCc1ccc2c(N)nccc2c1 [Example 32.09],4.40 to 5.00
22,COc1ccc(CNC(=O)[C@H](Cc2ccc(F)c(F)c2)NC(=O)CN2[C@H](C)CCC[C@@H]2C)cc1Cl [Example 34.01],4.40 to 5.00
23,C[C@@H]1CCC[C@H](C)N1CC(=O)N[C@@H](Cc1ccc(F)c(F)c1)C(=O)NC1CCN(c2ccncc2)CC1 [Example 34.02],5.00 to 5.52
24,C[C@@H]1CCC[C@H](C)N1CC(=O)N[C@@H](Cc1ccc(F)c(F)c1)C(=O)NCc1cccc2[nH]ccc12 [Example 34.03],5.00 to 5.52
25,C[C@@H]1CCC[C@H](C)N1CC(=O)N[C@@H](Cc1ccc(F)c(F)c1)C(=O)NCc1ccnc(N)c1 [Example 34.04],4.40 to 5.00
26,C[C@@H]1CCC[C@H](C)N1CC(=O)N[C@@H](Cc1ccc(F)c(F)c1)C(=O)NCc1ccc2[nH]ccc2c1 [Example 34.05],4.40 to 5.00
27,C[C@@H]1CCC[C@H](C)N1CC(=O)N[C@@H](Cc1ccc(F)c(F)c1)C(=O)NCc1cnc2[nH]ccc2c1 [Example 34.06],5.00 to 5.52
28,C[C@@H]1CCC[C@H](C)N1CC(=O)N[C@@H](Cc1ccc(F)c(F)c1)C(=O)NCc1ccc2[nH]ncc2c1 [Example 34.07],4.40 to 5.00
